The source of these data is publication PMC9477868, “Gut bacteria induce oviposition preference through ovipositor recognition in fruit fly” (Communications Biology, 2022).

What all share (format): binding
The target of assay [1] is T1, Obp56d (Bactrocera dorsalis, UniProt A0A6I9V3V6).
T1 construct: gene LOC105221864; recombinant, E. coli Rosetta (DE3), pET-32a(+) vector, designed from CDS; about 29 kDa on SDS-PAGE; anion-exchange purified
T1 sequence (A0A6I9V3V6 19-138): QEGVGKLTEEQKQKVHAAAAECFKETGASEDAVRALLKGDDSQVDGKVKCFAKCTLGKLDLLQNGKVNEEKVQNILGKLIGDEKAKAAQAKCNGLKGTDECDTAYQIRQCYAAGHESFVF
In words: competitive displacement of 1-NPN fluorescence. The settings on record: 3-HA 0-16 uM; 2 uM Obp, 50 mM Tris-HCl, pH 7.4; competitive with 1-NPN.

The target in assay [2] is T2, Obp56d-2 (Bactrocera dorsalis, UniProt A0ACM8RD04).
T2 construct: gene LOC105221865; recombinant, E. coli Rosetta (DE3), pET-32a(+) vector, designed from CDS; about 29 kDa on SDS-PAGE; anion-exchange purified
T2 sequence (A0ACM8RD04 19-138): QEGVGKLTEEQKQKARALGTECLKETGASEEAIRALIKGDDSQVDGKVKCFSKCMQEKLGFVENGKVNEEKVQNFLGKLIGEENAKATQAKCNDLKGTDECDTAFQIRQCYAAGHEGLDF
The experiment in a line: competitive displacement of 1-NPN fluorescence. The settings on record: 3-HA 0-16 uM; 2 uM Obp, 50 mM Tris-HCl, pH 7.4; competitive with 1-NPN.

The target of assay [3] is T1, Obp56d. In words: fluorescence titration, microplate reader (ex […] nm). The settings on record: 2 uM Obp, 2-16 uM 1-NPN, 50 mM Tris-HCl, pH 7.4; fluorescent probe; one-site fit.
In assay [4] the target is T2, Obp56d-2. The assay is described as above. The settings on record: 2 uM Obp, 2-16 uM 1-NPN, 50 mM Tris-HCl, pH 7.4; fluorescent probe; one-site fit.

For the compound `CCC=CCCOC(C)=O` [3-HA], the “% reduction of relative fluorescence intensity of the Obp/1-NPN complex” value in assay [1] and in assay [2] was above 50% throughout.
Regarding `c1ccc(Nc2cccc3ccccc23)cc1` [1-NPN], the dissociation constant result is “Then the dissociation constants of the Obp56d and Obp56d-2 were generated” in assay [3]; “Then the dissociation constants of the Obp56d and Obp56d-2 were generated” in assay [4].
